{
  "source": "ChEMBL document CHEMBL4387718",
  "about": "“Design, synthesis of orally bioavailable novel anaplastic lymphoma kinase (ALK) inhibitor diphenylaminopyrimidine analogs and efficacy study on NCI-H2228 xenografts mice model” (Bioorg Med Chem Lett, 2019)",
  "key": {"NCI-H3122": {"system": "NCI-H3122", "test": "Growth inhibition of human NCI-H3122 cells", "type": "functional, cell-based"}, "NCI-H2228 [1]": {"system": "NCI-H2228", "test": "Growth inhibition of human NCI-H2228 cells", "type": "functional, cell-based"}, "[2]": {"test": "Cmax in SCID Beige nude mouse xenografted with human NCI-H2228 cells harboring EML4-fused ALK variant at 3 to 30 mg/kg, po administered once daily for 14 days", "type": "ADME, organism-based", "details": "in vivo"}, "[3]": {"test": "AUC (0 to t) in SCID Beige nude mouse xenografted with human NCI-H2228 cells harboring EML4-fused ALK variant at 3 to 30 mg/kg, po administered once daily for 14 days", "type": "ADME, organism-based", "details": "in vivo, 336 h"}, "[4]": {"target": "ALK tyrosine kinase receptor (Homo sapiens, UniProt Q9UM73)", "sequence (Q9UM73 whole entry)": "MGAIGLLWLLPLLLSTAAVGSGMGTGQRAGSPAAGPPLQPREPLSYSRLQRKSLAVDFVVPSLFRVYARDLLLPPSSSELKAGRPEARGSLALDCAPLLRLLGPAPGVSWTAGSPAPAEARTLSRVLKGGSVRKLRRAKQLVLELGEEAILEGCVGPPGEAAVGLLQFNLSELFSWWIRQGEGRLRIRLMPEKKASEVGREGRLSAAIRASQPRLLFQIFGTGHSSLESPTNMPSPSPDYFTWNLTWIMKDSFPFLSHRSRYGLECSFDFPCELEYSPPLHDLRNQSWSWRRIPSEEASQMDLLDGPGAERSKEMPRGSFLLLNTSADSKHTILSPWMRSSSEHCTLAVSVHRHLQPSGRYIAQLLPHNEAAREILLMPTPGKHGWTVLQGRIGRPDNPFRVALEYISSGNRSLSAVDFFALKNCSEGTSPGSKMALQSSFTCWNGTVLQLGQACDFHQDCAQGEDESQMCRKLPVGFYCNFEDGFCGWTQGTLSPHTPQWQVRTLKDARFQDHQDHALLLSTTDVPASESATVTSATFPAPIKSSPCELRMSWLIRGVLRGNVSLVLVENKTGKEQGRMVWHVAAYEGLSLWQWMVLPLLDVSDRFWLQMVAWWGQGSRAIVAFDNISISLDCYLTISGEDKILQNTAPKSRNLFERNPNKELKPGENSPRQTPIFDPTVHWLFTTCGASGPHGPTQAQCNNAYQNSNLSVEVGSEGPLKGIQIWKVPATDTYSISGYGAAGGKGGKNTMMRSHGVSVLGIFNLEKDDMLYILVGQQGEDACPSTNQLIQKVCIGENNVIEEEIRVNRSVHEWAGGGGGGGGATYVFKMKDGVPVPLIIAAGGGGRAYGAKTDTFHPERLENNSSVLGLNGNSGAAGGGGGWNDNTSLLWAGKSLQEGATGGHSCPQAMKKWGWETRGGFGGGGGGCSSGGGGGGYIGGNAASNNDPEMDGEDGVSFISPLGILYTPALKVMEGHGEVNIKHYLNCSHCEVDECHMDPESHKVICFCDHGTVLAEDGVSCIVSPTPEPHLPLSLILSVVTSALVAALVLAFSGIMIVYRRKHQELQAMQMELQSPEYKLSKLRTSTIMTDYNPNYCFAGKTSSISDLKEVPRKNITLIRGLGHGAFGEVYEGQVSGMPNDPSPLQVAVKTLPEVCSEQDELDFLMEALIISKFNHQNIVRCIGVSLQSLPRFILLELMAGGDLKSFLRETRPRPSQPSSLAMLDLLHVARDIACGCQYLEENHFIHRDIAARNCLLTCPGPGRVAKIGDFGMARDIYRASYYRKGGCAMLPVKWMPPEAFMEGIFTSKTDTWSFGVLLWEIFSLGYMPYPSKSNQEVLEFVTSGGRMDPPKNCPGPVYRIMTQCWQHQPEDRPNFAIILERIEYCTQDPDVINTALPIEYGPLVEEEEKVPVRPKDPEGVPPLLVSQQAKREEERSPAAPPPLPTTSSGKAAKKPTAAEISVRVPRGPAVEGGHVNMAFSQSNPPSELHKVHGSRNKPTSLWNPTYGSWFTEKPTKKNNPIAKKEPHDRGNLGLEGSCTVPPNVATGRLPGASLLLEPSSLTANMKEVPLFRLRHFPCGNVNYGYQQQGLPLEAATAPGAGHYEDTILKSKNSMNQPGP", "test": "Inhibition of wild-type ALK (unknown origin)"}, "[5]": {"test": "Toxicity in SCID Beige nude mouse xenografted with human NCI-H2228 cells harboring EML4-fused ALK variant assessed as change in body weight at 30 mg/kg, po administered once daily for 14 days and measured twice per week for 14 days during compound dosing", "type": "organism-based", "details": "in vivo, 336 h"}, "NCI-H2228 [6]": {"system": "NCI-H2228", "test": "Antitumor activity against human NCI-H2228 cells harboring EML4-fused ALK variant xenografted in SCID Beige nude mouse assessed as tumor growth inhibition at 10 mg/kg, po administered once daily for 14 days measured twice per week for 21 days during compound dosing relative to control", "type": "functional", "details": "read-out: TGI"}, "[7]": {"target": "ALK tyrosine kinase receptor (Homo sapiens, UniProt Q9UM73, F1174L)", "sequence (Q9UM73 19-1620 F1174L limits assumed)": "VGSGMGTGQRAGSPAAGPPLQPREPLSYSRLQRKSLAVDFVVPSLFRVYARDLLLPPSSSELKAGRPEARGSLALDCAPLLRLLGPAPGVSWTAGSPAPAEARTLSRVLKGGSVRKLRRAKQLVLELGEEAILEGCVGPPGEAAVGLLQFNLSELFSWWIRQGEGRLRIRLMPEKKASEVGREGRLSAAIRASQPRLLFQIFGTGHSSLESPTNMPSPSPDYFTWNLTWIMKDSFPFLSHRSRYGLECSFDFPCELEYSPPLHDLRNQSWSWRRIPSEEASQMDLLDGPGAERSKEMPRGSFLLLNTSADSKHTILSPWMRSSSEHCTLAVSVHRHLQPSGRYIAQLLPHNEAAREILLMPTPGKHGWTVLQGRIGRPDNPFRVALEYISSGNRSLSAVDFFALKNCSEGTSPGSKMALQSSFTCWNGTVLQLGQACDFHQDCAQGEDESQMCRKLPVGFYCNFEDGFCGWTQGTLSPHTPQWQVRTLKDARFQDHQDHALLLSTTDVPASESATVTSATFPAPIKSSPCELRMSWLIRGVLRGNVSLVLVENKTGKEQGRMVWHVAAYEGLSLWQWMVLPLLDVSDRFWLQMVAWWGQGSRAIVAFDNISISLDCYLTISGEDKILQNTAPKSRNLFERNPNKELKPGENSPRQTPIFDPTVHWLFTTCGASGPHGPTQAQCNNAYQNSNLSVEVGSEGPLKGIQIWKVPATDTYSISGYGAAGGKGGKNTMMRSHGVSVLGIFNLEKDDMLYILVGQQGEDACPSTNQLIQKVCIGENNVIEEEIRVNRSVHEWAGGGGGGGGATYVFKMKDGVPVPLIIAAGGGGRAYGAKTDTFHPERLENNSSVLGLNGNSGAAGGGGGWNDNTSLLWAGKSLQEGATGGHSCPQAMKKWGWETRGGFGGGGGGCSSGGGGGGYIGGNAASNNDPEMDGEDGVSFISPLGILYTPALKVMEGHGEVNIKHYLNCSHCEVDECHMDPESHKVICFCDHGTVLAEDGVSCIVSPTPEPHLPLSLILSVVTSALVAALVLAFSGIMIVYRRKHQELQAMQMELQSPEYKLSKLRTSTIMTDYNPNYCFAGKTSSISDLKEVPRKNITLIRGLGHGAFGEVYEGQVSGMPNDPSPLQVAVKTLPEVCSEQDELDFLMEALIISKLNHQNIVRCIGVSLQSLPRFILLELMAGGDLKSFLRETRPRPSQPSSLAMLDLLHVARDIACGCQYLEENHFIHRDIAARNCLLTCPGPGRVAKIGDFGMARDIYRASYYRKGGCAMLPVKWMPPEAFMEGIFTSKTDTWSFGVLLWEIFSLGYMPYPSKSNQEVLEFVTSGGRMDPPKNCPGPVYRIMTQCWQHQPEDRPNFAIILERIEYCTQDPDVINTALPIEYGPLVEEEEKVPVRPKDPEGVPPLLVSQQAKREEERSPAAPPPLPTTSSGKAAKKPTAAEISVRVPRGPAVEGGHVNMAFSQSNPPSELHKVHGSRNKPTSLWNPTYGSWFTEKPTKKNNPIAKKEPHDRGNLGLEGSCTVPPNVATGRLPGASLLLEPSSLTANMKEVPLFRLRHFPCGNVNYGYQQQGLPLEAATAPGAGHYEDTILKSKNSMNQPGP", "test": "Inhibition of ALK F1174L mutant (unknown origin)"}, "NCI-H2228 [8]": {"system": "NCI-H2228", "test": "Antitumor activity against human NCI-H2228 cells harboring EML4-fused ALK variant xenografted in SCID Beige nude mouse assessed as tumor growth inhibition at 30 mg/kg, po administered once daily for 14 days measured twice per week for 21 days during compound dosing relative to control", "type": "functional", "details": "read-out: TGI"}, "[9]": {"target": "ALK tyrosine kinase receptor (Homo sapiens, UniProt Q9UM73, L1196M)", "sequence (Q9UM73 19-1620 L1196M limits assumed)": "as the sequence (Q9UM73 19-1620 F1174L limits assumed) above, with L1156F, L1178M counted along it", "test": "Inhibition of ALK L1196M mutant (unknown origin)"}, "[10]": {"test": "Oral bioavailability in SCID Beige nude mouse xenografted with human NCI-H2228 cells harboring EML4-fused ALK variant at 3 to 30 mg/kg administered once daily for 14 days relative to control", "type": "ADME, organism-based", "details": "in vivo"}, "[11]": {"test": "Tmax in SCID Beige nude mouse xenografted with human NCI-H2228 cells harboring EML4-fused ALK variant at 3 to 30 mg/kg, po administered once daily for 14 days", "type": "ADME, organism-based", "details": "in vivo"}, "NCI-H2228 [12]": {"system": "NCI-H2228", "test": "Antitumor activity against human NCI-H2228 cells harboring EML4-fused ALK variant xenografted in po dosed SCID Beige nude mouse assessed as tumor growth inhibition administered once daily for 14 days measured twice a week for 21 days during compound dosing", "type": "functional, organism-based", "details": "tested as the 2H-labelled form"}},
  "data": [
    {"smiles": "[2H]C([2H])([2H])C([2H])(Oc1cc(C2CCNCC2)c(C)cc1Nc1ncc(Cl)c(Nc2ccccc2S(=O)(=O)C(C)C)n1)C([2H])([2H])[2H]", "values": [
      {"measurement": "IC50", "setting": "NCI-H3122", "result": 0.0284, "unit": "µM"},
      {"measurement": "IC50", "setting": "NCI-H2228 [1]", "result": 0.111, "unit": "µM"}
    ]},
    {"smiles": "[2H]C([2H])([2H])Oc1cc(C2CCNCC2)c(C)cc1Nc1ncc(Cl)c(Nc2ccccc2S(=O)(=O)C(C)C)n1", "values": [
      {"measurement": "Cmax", "setting": "[2]", "result": 0.508, "unit": "µg/mL"},
      {"measurement": "AUCt", "setting": "[3]", "result": 6.98, "unit": "µg·h/mL"},
      {"measurement": "IC50", "setting": "[4]", "result": 0.071, "unit": "µM"},
      {"measurement": "IC50", "setting": "NCI-H3122", "result": 0.004, "unit": "µM"},
      {"measurement": "Activity", "setting": "[5]", "result": "Non-Toxic"},
      {"measurement": "inhibition in vivo at 10 mg/kg", "setting": "NCI-H2228 [6]", "result": 53, "unit": "%"},
      {"measurement": "IC50", "setting": "[7]", "result": 0.0368, "unit": "µM"},
      {"measurement": "IC50", "setting": "NCI-H2228 [1]", "result": 0.0413, "unit": "µM"},
      {"measurement": "inhibition in vivo at 30 mg/kg", "setting": "NCI-H2228 [8]", "result": 77, "unit": "%"},
      {"measurement": "IC50", "setting": "[9]", "result": 0.0187, "unit": "µM"},
      {"measurement": "bioavailability", "setting": "[10]", "result": 60, "unit": "%"},
      {"measurement": "Tmax", "setting": "[11]", "result": "6 to 8", "unit": "h"}
    ]},
    {"smiles": "[2H]c1c(C)c(C2CCNCC2)cc(OC(C)C)c1Nc1ncc(Cl)c(Nc2ccccc2S(=O)(=O)C(C)C)n1", "values": [
      {"measurement": "IC50", "setting": "NCI-H3122", "result": 0.0247, "unit": "µM"},
      {"measurement": "IC50", "setting": "NCI-H2228 [1]", "result": 0.0985, "unit": "µM"}
    ]},
    {"smiles": "[2H]c1ccc(Nc2nc(Nc3cc(C)c(C4CCNCC4)cc3OC(C)C)ncc2Cl)c(S(=O)(=O)C(C)C)c1", "values": [
      {"measurement": "IC50", "setting": "NCI-H3122", "result": 0.0285, "unit": "µM"},
      {"measurement": "IC50", "setting": "NCI-H2228 [1]", "result": 0.097, "unit": "µM"}
    ]},
    {"smiles": "COc1cc(C2CCNCC2)c(C)cc1Nc1ncc(Cl)c(Nc2ccccc2S(=O)(=O)C(C)C)n1", "values": [
      {"measurement": "TGI", "setting": "NCI-H2228 [12]", "result": "Dose-dependent effect"}
    ]},
    {"smiles": "Cc1cc(Nc2ncc(Cl)c(Nc3ccccc3S(=O)(=O)C(C)C)n2)c(OC(C)C)cc1C1CCNCC1", "note": "[CERITINIB]", "values": [
      {"measurement": "IC50", "setting": "NCI-H3122", "result": 0.0272, "unit": "µM"},
      {"measurement": "inhibition in vivo at 10 mg/kg", "setting": "NCI-H2228 [6]", "result": 26, "unit": "%"},
      {"measurement": "IC50", "setting": "NCI-H2228 [1]", "result": 0.097, "unit": "µM"}
    ]},
    {"smiles": "[2H]C([2H])([2H])C([2H])([2H])Oc1cc(C2CCNCC2)c(C)cc1Nc1ncc(Cl)c(Nc2ccccc2S(=O)(=O)C(C)C)n1", "values": [
      {"measurement": "IC50", "setting": "[4]", "result": 0.106, "unit": "µM"},
      {"measurement": "IC50", "setting": "NCI-H3122", "result": 0.006, "unit": "µM"},
      {"measurement": "IC50", "setting": "[7]", "result": 0.0516, "unit": "µM"},
      {"measurement": "IC50", "setting": "NCI-H2228 [1]", "result": 0.0455, "unit": "µM"},
      {"measurement": "IC50", "setting": "[9]", "result": 0.037, "unit": "µM"}
    ]}
  ]
}
